System: p53 transcription activity
Assay: p53 luciferase reporter assay in A375 cells
Format: cell-based, human
Details: 0.5 μM alone, 12 h
Description: Transient transfection: A375 cells were seeded in a culture dish overnight before transfection. p53-luciferase plasmid, and TurboFect reagent were mixed together in Dulbecco's modified eagle medium (DMEM) without FBS and the resulting solution was incubated for 20 min at 37 °C. The mixture was then added to the A375 cells in the wells. The cells were incubated for 12 h at 37 °C in a CO2 incubator before use.
Briefly, A375 cells were seed at a density of 6 × 10^5 cell in a culture dish overnight. The cells were co-transfected with p53-luciferase plasmid in serum-free DMEM medium using TurboFect Transfection Reagent. Then, the transfected cells were seeded in a 24-well plate and treated with an indicated concentration of 1 in 1% FBS medium for 6h. The transfected cells were lysed by the addition of 160 μL Passive Lysis Buffer (PLB). 50 μL of the cell lysates were transferred to a 96-well white plate followed by adding 50 μL of luciferase reporter reagent (LAR). The transcriptional activity was determined by measuring the activity of firefly luciferase in SpectraMax M5 microplate reader (Molecular Devices).

CCCS(=O)(=O)Nc1ccc(F)c(C(=O)c2c[nH]c3ncc(-c4ccc(Cl)cc4)cc23)c1F [vemurafenib, reference compound]
p53 transcription activity, single agent: negligible effect
